Data on two substances can be found in patent US10093973B2, “Polymerase compositions and methods” (LIFE TECHNOLOGIES CORPORATION, priority 2009, dated 2018).

What all share (assay type): biochemical
Assay [1] deals with 5′-[32P]-labeled templates or 5′-TAMRA-labeled templates. Kind of assay: Photostability assay (primer extension after 405 nm excitation radiation). As to conditions: after 30 seconds of exposure at 50 W/cm2, 405 nm. An excerpt:
The photostability of an exemplary reference polymerase comprising a His-tagged version of Phi-29 polymerase (“HP1; see, e.g., U.S. Provisional Application No. 61/184,770, filed Jun. 5, 2009 for disclosure of HP1 sequence and purification) comprising the amino acid sequence of SEQ ID NO: 20, and an exemplary modified polymerase comprising the amino acid sequence of SEQ ID NO: 19 and further comprising the amino acid substitution D175A were characterized by measuring the amount of primer extension observed in each sample prior to and following exposure to excitation radiation at 405 nm Reactions (100 μL) containing 50 mM Tris, pH 7.5, 50 mM NaCl, 1 mM DTT, 2 mM MnCl2, 0.3% BSA, 10-200 nM polymerase and 100 nM nanoparticles (or premade polymerase-nanoparticle conjugates; see, e.g., U.S. Provisional Application No. 61/184,770 filed Jun. 5, 2009), and 100 nM 5′-[^32P]-labeled templates or 5′-TAMRA-labeled templates were prepared with and without the Oxygen Scavenging System (OSS). […] Polymerase activity was quantified as the % of extended primer (as compared to the total starting amount of primer), as measured by densitometric analysis. Phototoxicity is quantified by measuring the percent decrease in polymerase activity that occurs when samples are illuminated compared to non-illuminated samples. The photostability is quantified by subtracting the observed photosensitivity from 100.

For assay [2], the system named is ωdN4P and non-extendible AF546 primer:template duplex. Kind of assay: Stopped-flow t−1 measurement of Example 7. The settings on record: modified versus reference polymerase, ωdN4P 14 μM. Here is the method: In this example, the t−1 values of an exemplary modified polymerase comprising the amino acid of SEQ ID NO: 8 and an exemplary reference polymerase comprising the amino acid sequence of SEQ ID NO: 20 were measured and compared. These kinetic parameters were evaluated using an assay system wherein mixtures comprising a test polymerase and a primer:template duplex were mixed in a stopped-flow assay with nucleotides. To measure t−1, the primer used to form the primer:template duplex was a non-extendible primer including a dideoxynucleotide at its 3′ end, and the template was a synthetic DNA template comprising a donor Alexa Fluor 546 moiety at its 5′ end. […] The ternary complex was mixed with unlabeled nucleotides in a stopped-flow experiment, and the resulting fluorescence was monitored as described below. […]
Preincubated mixtures comprising 200 nM of a primer:templex duplex, 660 nM of test polymerase, and 14 μM of ωdN4P were prepared and then mixed with a solution comprising the unlabeled cognate nucleotide (50 μM) in a stopped-flow apparatus. The fluorescence at both 546 nm and 647 nm was monitored following mixing. The averaged stopped-flow fluorescence traces were fitted with a single exponential function having the form of Equation (1) to extrapolate the t−1 value of the test polymerase.

In assay [3] the test system is ωdN4P and extendible AF546 primer:template duplex. The assay can be described thus: Stopped-flow tpol measurement of Example 8. The settings on record: modified versus reference polymerase, ωdN4P 14 μM. The procedure:
In this example, the tpol values of an exemplary modified polymerase comprising the amino acid of SEQ ID NO: 8 and was measured and compared to the tpol value of an exemplary reference polymerase comprising the amino acid sequence of SEQ ID NO: 20. These kinetic parameters were evaluated using a stopped-flow assay wherein a mixture comprising an extendible dye-labeled primer:template duplex and test polymerase was mixed with a solution comprising terminally-labeled nucleotide tetraphosphates or terminally-labeled nucleotide hexaphosphates. These terminally-labeled nucleotides comprise terminal-phosphate-labeled nucleotides having an alkyl linker with a functional amine group attached to the dye. The fluorescence of the resulting mixture was monitored over time. Unless noted otherwise, all concentrations refer to the initial concentrations prior to mixing. […]
Each primer-template duplex (200 nM) was preincubated with test polymerase (660 nM) and to form an E.DNA binary complex. This binary complex was mixed with the cognate omega-labeled nucleoside tetraphosphate (ωdN4P; 14 μM) in a stopped-flow experiment, and the fluorescence at both 546 nm and 647 nm was monitored following mixing. The averaged stopped-flow fluorescence traces were fitted with the double exponential function of Equation (2) to extrapolate the tpol value of the test polymerase: […]

As to “HP1: Phi-29 polymerase lacking exonuclease activity with N-terminal His-tag, linker, D12A and D66A mutations [reference compound]”, in assay [1], the “% activity retained” value is reported as “less than 40%”.

In the case of “SEQ ID NO: 1: exemplary polymerase of the bacteriophage Phi-29 [reference compound]”, the “estimated t−1 values” in assay [2] was “comparable”. For the same substance, the estimated tpol values entry in assay [3] is “comparable”.
